Laboratory results: patent US20240226319A1, “EGFR TARGETING FC ANTIGEN BINDING FRAGMENT-DRUG CONJUGATES” (MERCK PATENT GMBH, priority 2021, published 2024)

Legend:
[1] = system: EGFR positive (MDA MB 468 and A431) and EGFR negative (MCF 7) cells; test: Cellular binding analysis by flow cytometry; assay type: cell-based, human; details: 100 nM, 60 min at 4° C., AF488-labeled detection antibody
[2] = Thermal unfolding by nanoDSF; assay type: physicochemical; details: PBS pH 6.8, 20 to 95° C. at 1° C./min
Experimental: FIG. 10 Thermal stability of Fcabs and huFc control molecule. The first derivative of thermal unfolding curves (A) as well as the unfolding transition midpoints (Tm) (B) are shown. To determine thermal unfolding, Fcabs and huFc (PBS pH 6.8) were loaded into nanoDSF grade standard capillaries which were then transferred into a Prometheus NT.PLEX nanoDSF (NanoTemper Technologies) instrument. Samples were subjected to a linear thermal ramp from 20° C. to 95° C. at a slope of 1° C./min with simultaneous recording of fluorescence at 350 and 330 nm. Unfolding transition midpoints (Tm) were determined from the first derivative of the fluorescence ratio 350 nm/330 nm. All samples were measured in duplicates. n.d.—not detected
As a negative control, we included an unmodified human Fc (huFc) fragment. As EGFR-binding references, a Cetuximab-based full length IgG (C-IgG) and a Cetuximab-derived Fab (C-Fab) fragment, both equipped with a sortase A (SrtA) recognition motif (LPETG) at the C-terminal end of the light chain, were included. […] Moreover, we evaluated functional and selective cellular binding of the purified constructs (FIG. 11, FIG. 12). […] To ensure comparability between individual fluorescence intensities resulting from differently labeled constructs, the fluorescence signals were normalized. […]

huFc: Modified human IgG1 Fc fragment (D265A), negative control, SEQ ID No. 7
cellular binding [1]: do not show any binding | unfolding transition midpoint Tm,1 [2]: 66 °C
